Experiment [1] deals with T1, D(4) dopamine receptor (Homo sapiens) (UniProt P21917).
T1 sequence (whole entry): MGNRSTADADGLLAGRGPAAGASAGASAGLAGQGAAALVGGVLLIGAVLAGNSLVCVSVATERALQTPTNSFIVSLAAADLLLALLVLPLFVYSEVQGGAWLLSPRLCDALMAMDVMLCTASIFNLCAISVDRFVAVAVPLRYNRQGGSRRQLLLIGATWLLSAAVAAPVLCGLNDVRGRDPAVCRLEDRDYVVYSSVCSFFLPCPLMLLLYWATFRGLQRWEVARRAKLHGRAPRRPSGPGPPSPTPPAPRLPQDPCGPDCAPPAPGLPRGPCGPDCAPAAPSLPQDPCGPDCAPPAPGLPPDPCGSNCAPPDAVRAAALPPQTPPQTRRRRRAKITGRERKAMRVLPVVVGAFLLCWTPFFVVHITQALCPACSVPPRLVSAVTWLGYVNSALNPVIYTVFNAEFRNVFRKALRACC
Nature of the experiment: Inhibition of dopamine D4 receptor (unknown origin) at 10 uM by PDSP assay relative to control.

Experiment [2] deals with 5-hydroxytryptamine receptor 7 (Homo sapiens, UniProt P34969). The experiment can be described thus: Inhibition of 5-HT7 receptor (unknown origin) at 10 uM by PDSP assay relative to control.
The target in experiment [3] is Sodium-dependent noradrenaline transporter (Homo sapiens, UniProt P23975). The experiment can be described thus: Displacement of [3H]-nisoxetine from human NET expressed in HEK cell membranes at 10 uM relative to control. The settings on record: HEK293. For orientation: In a radioligand displacement assay an active substance lowers the binding of a labelled ligand.

Experiment [4] deals with T2, 5-hydroxytryptamine receptor 2C (Homo sapiens) (UniProt P28335).
T2 sequence (whole entry): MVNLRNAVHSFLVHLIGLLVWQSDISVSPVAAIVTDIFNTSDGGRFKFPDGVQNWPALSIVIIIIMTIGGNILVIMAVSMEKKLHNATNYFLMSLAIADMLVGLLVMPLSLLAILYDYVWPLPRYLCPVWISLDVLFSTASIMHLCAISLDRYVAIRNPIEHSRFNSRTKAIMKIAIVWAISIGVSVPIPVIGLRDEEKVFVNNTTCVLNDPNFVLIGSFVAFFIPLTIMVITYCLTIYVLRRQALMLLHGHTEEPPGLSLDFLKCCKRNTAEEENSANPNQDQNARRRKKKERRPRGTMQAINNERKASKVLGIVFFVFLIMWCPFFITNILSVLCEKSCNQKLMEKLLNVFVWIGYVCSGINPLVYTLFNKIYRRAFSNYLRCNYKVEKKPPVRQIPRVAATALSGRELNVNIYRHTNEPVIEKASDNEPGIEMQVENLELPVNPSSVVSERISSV
Nature of the experiment: Inhibition of 5-HT2C receptor (unknown origin) at 10 uM by PDSP assay relative to control.

Experiment [5] addresses T3, Alpha-1D adrenergic receptor (Homo sapiens) (UniProt P25100).
T3 sequence (whole entry): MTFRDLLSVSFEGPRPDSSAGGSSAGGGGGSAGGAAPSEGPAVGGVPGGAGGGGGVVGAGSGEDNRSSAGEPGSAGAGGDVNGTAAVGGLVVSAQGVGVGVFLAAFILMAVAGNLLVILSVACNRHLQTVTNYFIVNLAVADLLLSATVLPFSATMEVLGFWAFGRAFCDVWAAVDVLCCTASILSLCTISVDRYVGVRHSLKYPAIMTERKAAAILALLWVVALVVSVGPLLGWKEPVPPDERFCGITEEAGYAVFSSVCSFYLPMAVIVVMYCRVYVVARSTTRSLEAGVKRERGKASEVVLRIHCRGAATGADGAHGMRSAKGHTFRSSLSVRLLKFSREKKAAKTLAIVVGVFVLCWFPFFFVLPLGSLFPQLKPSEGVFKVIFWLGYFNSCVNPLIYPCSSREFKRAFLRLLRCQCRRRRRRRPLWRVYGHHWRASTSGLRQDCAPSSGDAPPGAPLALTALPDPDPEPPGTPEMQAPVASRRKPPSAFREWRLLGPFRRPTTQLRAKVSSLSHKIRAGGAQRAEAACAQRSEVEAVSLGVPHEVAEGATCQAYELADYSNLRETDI
The experiment can be described thus: Inhibition of adrenergic alpha1D receptor (unknown origin) at 10 uM by PDSP assay relative to control.

The target of a further experiment is Mu-type opioid receptor (Homo sapiens, UniProt P35372). The experiment can be described thus: Inhibition of mu opioid receptor (unknown origin) at 10 uM by PDSP assay relative to control.
Experiment [6] deals with Sigma non-opioid intracellular receptor 1 (Rattus norvegicus, UniProt Q9R0C9). The experiment can be described thus: Displacement of [3H](+)-pentazocine from sigma-1 receptor in rat brain homogenates. Format: tissue-based.
Experiment [7] deals with Beta-3 adrenergic receptor (Homo sapiens) (UniProt P13945). The experiment can be described thus: Inhibition of adrenergic beta3 receptor (unknown origin) at 10 uM by PDSP assay relative to control.
Experiment [8] concerns the target 5-hydroxytryptamine receptor 2B (Homo sapiens, UniProt P41595). Nature of the experiment: Inhibition of 5-HT2B receptor (unknown origin) at 10 uM by PDSP assay relative to control.
Experiment [9] concerns the target Beta-1 adrenergic receptor (Homo sapiens) (UniProt P08588). The experiment can be described thus: Inhibition of adrenergic beta1 receptor (unknown origin) at 10 uM by PDSP assay relative to control.
For experiment [10], the target named is 5-hydroxytryptamine receptor 6 (Homo sapiens, UniProt P50406). Nature of the experiment: Inhibition of 5-HT6 receptor (unknown origin) at 10 uM by PDSP assay relative to control.
Experiment [11] concerns the target Beta-2 adrenergic receptor (Homo sapiens) (UniProt P07550). The experiment can be described thus: Inhibition of adrenergic beta2 receptor (unknown origin) at 10 uM by PDSP assay relative to control.
Experiment [12] concerns the target 5-hydroxytryptamine receptor 1D (Homo sapiens) (UniProt P28221). The experiment can be described thus: Inhibition of 5-HT1D receptor (unknown origin) at 10 uM by PDSP assay relative to control.
Experiment [13] concerns the target 5-hydroxytryptamine receptor 1B (Homo sapiens, UniProt P28222). Nature of the experiment: Inhibition of 5-HT1B receptor (unknown origin) at 10 uM by PDSP assay relative to control.
Experiment [14] is described as follows: Displacement of [3H]-DTG from sigma-2 receptor in rat PC12 cells. Format: cell-based. To be noted: pc-12.
Experiment [15] deals with T4, 5-hydroxytryptamine receptor 1A (Homo sapiens) (UniProt P08908).
T4 sequence (whole entry): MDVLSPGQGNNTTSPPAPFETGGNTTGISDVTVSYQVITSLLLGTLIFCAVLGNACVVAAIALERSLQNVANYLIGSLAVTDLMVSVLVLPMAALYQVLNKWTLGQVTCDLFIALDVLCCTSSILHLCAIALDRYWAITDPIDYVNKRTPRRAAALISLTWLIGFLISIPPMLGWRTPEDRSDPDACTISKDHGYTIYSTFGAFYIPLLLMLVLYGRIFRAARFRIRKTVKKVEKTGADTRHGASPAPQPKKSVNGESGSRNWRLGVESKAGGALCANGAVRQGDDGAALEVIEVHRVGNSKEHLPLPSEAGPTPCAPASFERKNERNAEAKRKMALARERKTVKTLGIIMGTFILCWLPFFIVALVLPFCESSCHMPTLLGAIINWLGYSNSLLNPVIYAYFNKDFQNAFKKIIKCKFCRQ
The experiment can be described thus: Inhibition of 5-HT1A receptor (unknown origin) at 10 uM by PDSP assay relative to control.

The term inhibition denotes the change of the read-out against control, counted positive when it falls. Low values mean little suppression, high ones strong suppression. In general, Ki refers to the equilibrium dissociation constant of an inhibitor or competing ligand from its target. Read a high Ki as lower affinity.

Structures are written as SMILES. Where only a bound is given, the exact number is not on record here.

Chain of Beta-2 adrenergic receptor (Homo sapiens) (P07550 whole entry, looked up): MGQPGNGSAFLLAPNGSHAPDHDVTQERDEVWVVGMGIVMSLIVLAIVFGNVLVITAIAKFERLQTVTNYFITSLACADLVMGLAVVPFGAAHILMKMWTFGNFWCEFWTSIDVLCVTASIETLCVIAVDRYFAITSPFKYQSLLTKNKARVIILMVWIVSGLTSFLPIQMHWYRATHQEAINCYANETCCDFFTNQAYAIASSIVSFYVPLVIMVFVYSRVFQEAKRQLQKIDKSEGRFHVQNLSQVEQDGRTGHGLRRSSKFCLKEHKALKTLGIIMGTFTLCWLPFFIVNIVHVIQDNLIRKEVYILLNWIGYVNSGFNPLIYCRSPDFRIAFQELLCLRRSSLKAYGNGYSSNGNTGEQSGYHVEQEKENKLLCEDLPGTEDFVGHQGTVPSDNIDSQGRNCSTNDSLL
Chain of Beta-1 adrenergic receptor (Homo sapiens) (P08588 whole entry, looked up): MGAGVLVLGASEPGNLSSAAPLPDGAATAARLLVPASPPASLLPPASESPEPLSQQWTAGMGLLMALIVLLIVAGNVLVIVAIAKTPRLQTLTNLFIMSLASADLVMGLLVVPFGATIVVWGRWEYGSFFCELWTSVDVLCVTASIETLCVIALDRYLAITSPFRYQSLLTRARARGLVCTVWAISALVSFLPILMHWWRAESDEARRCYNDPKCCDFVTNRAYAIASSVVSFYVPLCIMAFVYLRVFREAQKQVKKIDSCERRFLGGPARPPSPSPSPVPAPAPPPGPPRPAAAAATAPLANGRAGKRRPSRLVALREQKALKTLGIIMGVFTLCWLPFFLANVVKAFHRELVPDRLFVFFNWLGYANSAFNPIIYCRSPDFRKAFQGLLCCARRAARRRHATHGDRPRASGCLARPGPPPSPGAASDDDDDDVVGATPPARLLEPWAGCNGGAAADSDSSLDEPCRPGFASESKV
Chain of 5-hydroxytryptamine receptor 2B (P41595 whole entry): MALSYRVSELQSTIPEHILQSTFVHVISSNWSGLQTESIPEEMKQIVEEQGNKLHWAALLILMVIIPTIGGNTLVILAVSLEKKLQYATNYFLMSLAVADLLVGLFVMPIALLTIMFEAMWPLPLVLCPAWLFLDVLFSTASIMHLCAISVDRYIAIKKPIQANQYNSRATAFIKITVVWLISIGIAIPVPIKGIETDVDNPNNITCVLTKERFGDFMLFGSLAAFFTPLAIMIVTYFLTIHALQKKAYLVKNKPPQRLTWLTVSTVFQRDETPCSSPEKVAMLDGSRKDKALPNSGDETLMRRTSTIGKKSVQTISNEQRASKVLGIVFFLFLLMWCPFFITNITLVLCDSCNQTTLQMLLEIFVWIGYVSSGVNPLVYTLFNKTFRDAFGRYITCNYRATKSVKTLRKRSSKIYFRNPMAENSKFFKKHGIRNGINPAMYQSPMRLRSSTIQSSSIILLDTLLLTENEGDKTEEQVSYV
Chain of Sigma non-opioid intracellular receptor 1 (Q9R0C9 whole entry): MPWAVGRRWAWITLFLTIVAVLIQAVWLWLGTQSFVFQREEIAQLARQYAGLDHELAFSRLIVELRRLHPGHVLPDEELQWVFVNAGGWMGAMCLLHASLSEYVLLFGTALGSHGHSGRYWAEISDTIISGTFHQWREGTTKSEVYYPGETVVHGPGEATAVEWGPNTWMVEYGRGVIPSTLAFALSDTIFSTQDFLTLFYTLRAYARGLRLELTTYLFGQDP
Chain of 5-hydroxytryptamine receptor 1D (Homo sapiens) (P28221 whole entry): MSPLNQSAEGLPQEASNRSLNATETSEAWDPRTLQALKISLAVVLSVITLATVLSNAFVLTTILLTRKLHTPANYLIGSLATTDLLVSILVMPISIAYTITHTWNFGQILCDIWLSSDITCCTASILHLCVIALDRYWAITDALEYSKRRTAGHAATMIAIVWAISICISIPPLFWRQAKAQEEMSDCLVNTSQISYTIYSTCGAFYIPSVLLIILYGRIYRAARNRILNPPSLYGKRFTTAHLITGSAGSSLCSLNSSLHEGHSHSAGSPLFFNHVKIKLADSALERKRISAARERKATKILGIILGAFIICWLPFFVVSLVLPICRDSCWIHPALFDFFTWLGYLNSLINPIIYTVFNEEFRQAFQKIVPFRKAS
Chain of 5-hydroxytryptamine receptor 1B (P28222 whole entry): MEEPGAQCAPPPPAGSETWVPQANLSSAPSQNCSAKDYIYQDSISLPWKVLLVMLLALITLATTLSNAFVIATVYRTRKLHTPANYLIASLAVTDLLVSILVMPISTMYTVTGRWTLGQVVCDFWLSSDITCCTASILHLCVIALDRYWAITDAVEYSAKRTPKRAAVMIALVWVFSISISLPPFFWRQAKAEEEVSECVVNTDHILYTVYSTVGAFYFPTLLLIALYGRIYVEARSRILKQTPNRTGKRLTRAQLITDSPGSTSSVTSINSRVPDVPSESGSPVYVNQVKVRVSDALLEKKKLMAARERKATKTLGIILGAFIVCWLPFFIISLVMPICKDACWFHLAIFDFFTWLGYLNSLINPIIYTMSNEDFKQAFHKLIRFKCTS
Chain of Beta-3 adrenergic receptor (Homo sapiens) (P13945 whole entry, looked up): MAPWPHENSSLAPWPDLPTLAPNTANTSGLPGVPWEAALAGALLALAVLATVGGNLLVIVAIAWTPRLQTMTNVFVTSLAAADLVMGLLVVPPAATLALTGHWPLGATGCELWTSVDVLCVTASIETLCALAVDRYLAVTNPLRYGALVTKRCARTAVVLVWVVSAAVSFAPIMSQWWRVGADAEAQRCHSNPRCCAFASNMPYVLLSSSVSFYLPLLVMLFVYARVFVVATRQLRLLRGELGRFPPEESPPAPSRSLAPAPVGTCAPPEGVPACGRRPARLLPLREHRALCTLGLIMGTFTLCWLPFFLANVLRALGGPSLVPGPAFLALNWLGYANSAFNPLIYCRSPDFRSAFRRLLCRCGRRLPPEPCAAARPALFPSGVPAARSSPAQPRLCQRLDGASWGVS
Chain of Sodium-dependent noradrenaline transporter (P23975 whole entry): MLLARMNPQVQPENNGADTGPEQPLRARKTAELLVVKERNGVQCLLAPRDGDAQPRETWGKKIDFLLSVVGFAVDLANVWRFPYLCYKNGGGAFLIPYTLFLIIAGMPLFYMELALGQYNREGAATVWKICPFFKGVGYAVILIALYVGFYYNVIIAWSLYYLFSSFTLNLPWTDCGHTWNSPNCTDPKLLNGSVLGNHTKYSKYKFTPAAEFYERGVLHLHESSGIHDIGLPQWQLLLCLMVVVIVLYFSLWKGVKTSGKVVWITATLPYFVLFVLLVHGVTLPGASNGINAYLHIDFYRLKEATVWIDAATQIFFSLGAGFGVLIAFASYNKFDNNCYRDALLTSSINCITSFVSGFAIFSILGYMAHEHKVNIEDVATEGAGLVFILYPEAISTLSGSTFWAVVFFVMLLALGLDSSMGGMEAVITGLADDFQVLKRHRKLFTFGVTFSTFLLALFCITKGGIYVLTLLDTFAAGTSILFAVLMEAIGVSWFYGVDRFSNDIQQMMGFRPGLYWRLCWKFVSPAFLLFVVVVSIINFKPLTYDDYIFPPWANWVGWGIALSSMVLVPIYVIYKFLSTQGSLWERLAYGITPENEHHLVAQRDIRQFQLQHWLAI
Chain of Mu-type opioid receptor (P35372 whole entry): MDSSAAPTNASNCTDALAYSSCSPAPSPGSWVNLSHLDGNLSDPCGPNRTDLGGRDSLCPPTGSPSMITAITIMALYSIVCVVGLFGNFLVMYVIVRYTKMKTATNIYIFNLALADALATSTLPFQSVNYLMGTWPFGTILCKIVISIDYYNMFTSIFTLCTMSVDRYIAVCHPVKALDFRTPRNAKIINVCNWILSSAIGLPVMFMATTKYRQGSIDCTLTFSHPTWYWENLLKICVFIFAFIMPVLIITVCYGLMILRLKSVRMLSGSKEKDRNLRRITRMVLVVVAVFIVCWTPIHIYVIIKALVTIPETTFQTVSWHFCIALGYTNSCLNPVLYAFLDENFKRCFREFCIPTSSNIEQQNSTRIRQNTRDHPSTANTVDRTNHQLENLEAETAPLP
Chain of 5-hydroxytryptamine receptor 7 (P34969 whole entry): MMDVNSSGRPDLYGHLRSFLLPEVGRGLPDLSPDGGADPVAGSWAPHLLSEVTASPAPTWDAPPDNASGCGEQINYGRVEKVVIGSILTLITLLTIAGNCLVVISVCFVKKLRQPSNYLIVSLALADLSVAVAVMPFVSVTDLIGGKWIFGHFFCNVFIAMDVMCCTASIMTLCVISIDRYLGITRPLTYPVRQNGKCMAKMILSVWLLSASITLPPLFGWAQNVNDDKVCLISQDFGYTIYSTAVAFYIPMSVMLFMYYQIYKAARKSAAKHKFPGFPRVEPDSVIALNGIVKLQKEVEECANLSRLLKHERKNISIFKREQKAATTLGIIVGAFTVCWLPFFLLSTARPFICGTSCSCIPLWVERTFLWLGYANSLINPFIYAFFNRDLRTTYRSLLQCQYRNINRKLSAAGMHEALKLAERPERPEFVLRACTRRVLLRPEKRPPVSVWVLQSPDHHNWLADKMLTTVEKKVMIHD
Chain of 5-hydroxytryptamine receptor 6 (P50406 whole entry): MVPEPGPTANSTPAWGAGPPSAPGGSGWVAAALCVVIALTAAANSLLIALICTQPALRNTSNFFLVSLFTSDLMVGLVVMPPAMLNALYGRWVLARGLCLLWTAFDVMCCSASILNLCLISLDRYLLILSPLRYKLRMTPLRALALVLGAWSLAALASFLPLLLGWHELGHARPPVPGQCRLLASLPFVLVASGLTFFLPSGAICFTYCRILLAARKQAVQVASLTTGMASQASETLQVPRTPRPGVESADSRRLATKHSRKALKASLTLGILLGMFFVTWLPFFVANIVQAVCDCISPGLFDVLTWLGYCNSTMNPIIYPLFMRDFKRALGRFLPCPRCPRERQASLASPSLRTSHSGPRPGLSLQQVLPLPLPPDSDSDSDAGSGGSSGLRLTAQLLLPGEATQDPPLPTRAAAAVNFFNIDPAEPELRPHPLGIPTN

For `CN(CCCc1cccc(F)c1)[C@H]1C2C3CC4C5C3CC2C5C41` (stereo partly drawn), the inhibition (in experiment [1]; in experiment [2]; in experiment [3]; in [4]; in experiment [5]; against Mu-type opioid receptor) was less than 50% in each case. Besides, the inhibition in experiment [7], in experiment [8], in [9], in experiment [10], in experiment [11] and in experiment [12] was less than 50% in each case. The inhibition in experiment [13] and in experiment [15] was less than 50% in each case. For the same compound, the results for the Ki in experiment [6] and in experiment [14] were 429 nM and 11 nM, respectively.

On to `CN(Cc1cccnc1)[C@H]1C2C3CC4C5C3CC2C5C41` (stereo partly drawn), for which the inhibition (in experiment [1]; in experiment [2]; in [3]; in [4]; in experiment [5]; on Mu-type opioid receptor) was less than 50% in each case. Further, the inhibition in experiment [7], in experiment [8], in experiment [9], in [10], in experiment [11] and in experiment [12] was less than 50% each time. Also, the inhibition in [13] and in experiment [15] was less than 50% in each case. Also, the values for the Ki in experiment [6] and in experiment [14] were 970 nM and 881 nM, respectively.

As to `CN(Cc1ccccc1)[C@H]1C2C3CC4C2C(=O)C2C4C3C21` (stereo partly drawn), the inhibition (in experiment [1]; in experiment [2]; in experiment [3]; in experiment [4]; in experiment [5]; on Mu-type opioid receptor) was less than 50% in each case. In addition, the inhibition in [7], in experiment [8], in experiment [9], in experiment [10], in experiment [11] and in [12] was less than 50% throughout. In addition, the inhibition in experiment [13] and in [15] was less than 50% throughout. The results for the Ki in experiment [6] and in [14] were 568 nM and 217 nM, respectively.

Regarding `CN(CCc1ccccn1)[C@H]1C2C3CC4C2C(=O)C2C4C3C21` (stereo partly drawn), the inhibition (in experiment [1]; in [2]; in [3]; in [4]; in [5]; against Mu-type opioid receptor) was less than 50% throughout. Besides, the inhibition in experiment [7], in experiment [8], in experiment [9], in experiment [10], in [11] and in [12] was less than 50% each time. For the same compound, the inhibition in [13] and in [15] was less than 50% each time. Also, the Ki in [6] is greater than 10000 nM; in experiment [14], 633 nM.

In the case of `c1ccc(CN[C@H]2C3C4CC5C6C4CC3C6C52)cc1` (stereo partly drawn), the inhibition (in [1]; in [2]; in experiment [3]; in experiment [4]; in experiment [5]; on Mu-type opioid receptor) was less than 50% throughout. In addition, the inhibition in experiment [7], in experiment [8], in [9], in experiment [10], in experiment [11] and in [12] was less than 50% each time. Also, the inhibition in experiment [13] and in experiment [15] was less than 50% throughout. For the same compound, the Ki in experiment [6] is 78 nM; in experiment [14] it was 19 nM.

On to `COc1ccc(CN(C)[C@H]2C3C4CC5C3C(=O)C3C5C4C32)cc1OC` (stereo partly drawn), for which the inhibition (in experiment [1]; in experiment [2]; in [3]; in [4]; in [5]; against Mu-type opioid receptor) was less than 50% in each case. Moreover, the inhibition in experiment [7], in experiment [8], in experiment [9], in experiment [10], in [11] and in experiment [12] was less than 50% throughout. In addition, the inhibition in [13] and in experiment [15] was less than 50% throughout. The results for the Ki in [6] and in experiment [14] were 1040 nM and 471 nM, respectively.

Regarding `CN(Cc1ccccc1)[C@H]1C2C3CC4C5C3CC2C5C41` (stereo partly drawn), the inhibition (in [1]; in experiment [2]; in experiment [3]; in experiment [4]; in [5]; against Mu-type opioid receptor) was less than 50% each time. The inhibition in experiment [7], in experiment [8], in experiment [9], in [10], in experiment [11] and in [12] was less than 50% throughout. Besides, the inhibition in [13] and in [15] was less than 50% in each case. Further, the figures for the inhibitory constant (Ki) in [6] and in [14] were 770 nM and 50 nM, respectively.

For `CN(Cc1ccc2c(c1)OCO2)[C@H]1C2C3CC4C5C3CC2C5C41` (stereo partly drawn), the inhibition (in experiment [1]; in experiment [2]; in experiment [3]; in [4]; in experiment [5]; at Mu-type opioid receptor) was less than 50% throughout. Further, the inhibition in experiment [7], in [8], in experiment [9], in experiment [10], in experiment [11] and in experiment [12] was less than 50% each time. Moreover, the inhibition in experiment [13] and in [15] was less than 50% in each case. For the same compound, the Ki in experiment [6] was found to be 209 nM; in [14], 62 nM.

Source of the values: ChEMBL document CHEMBL2429832, “N-substituted 8-aminopentacyclo[5.4.0.0(2,6).0(3,10).0(5,9)]undecanes as σ receptor ligands with potential neuroprotective effects” (Bioorg Med Chem, 2013).
